What was measured:
[1] = molecular target: PP2A (Bos taurus, UniProt P67774); test: Phosphatase activity by [32P] release from phosphorylase-a or phosphohistone (Honkanen method); type: biochemical; details: 100 μM inhibitor; none = 100; read-out: PP2A, percent inhibition relative to control (100%)
Method: (§1) It has been found in accordance with the present invention that compounds of formula I are capable of inhibiting serine/threonine protein phosphatases. Inhibition of serine/threonine protein phosphatases is defined herein as inhibition of the activity of one or more of PP1, PP2A or PP3 at a concentration of 100 μM or less of the inhibitor compound. In a preferred embodiment, the activity of the phosphatase is inhibited by at least 10%. In more preferred embodiments, the activity of the phophatase is inhibited by at least 25%, or even more preferably, by at least 50%. Inhibition of PP1, PP2A or PP3 can be assessed by methods known to one of ordinary skill in the art. Suitable assays are described, for example by Honkanen et al. (1994) Toxicon 32:339 and Honkanen et al. (1990) J. Biol. Chem. 265: 19401, the disclosures of which are incorporated herein by reference. Briefly, phosphatase activity is determined by quantifying the [^32 p] released from a ^32 p-labeled substrate such as phosphohistone or phosphorylase-a. Decreased [^32 p] release in the presence of the compounds of the present invention relative to control samples provides a measure of the ability of the compounds of the invention to inhibit PP1, PP2A or PP3.
(§2) Phosphatase activity and the inhibitory activity of the compounds of Table 1 were determined by the method of Honkanen et al. (1994) Toxicon 32:339. Briefly, phosphatase activity against phosphorylase-a or phosphohistone was 25 determined by the quantification of liberated [^32 p]. Assays, 80 μl total volume, containing 50 mM Tris-HCl, pH 7.4, 0.5 mM DTT, 1 mM EDTA (assay buffer) and [^32 p]phosphoprotein (1-2 μM PO4), were conducted as described previously (Honkanen et al., 1991 Mol. Pharmac. 40:577). Dephosphorylation reactions were routinely conducted for 5-10 min. using phosphorylase-a as a substrate and for 10-20 min. using phosphohistone. In all assays the dephosphorylation of substrate was kept to less than 10% of the total phosphorylated substrate available, and the reactions were adjusted to ensure that enzyme activity was linear with respect to enzyme concentration and time. [^32 p]Phosphate liberated by the enzymes was extracted as a phosphomolybdate complex and measured according to the methods of Killilea et al. (1978) Arch. Biochem. Biophys. 191:638. Inhibition of protein phosphatase activity by inhibitors was determined by adding the 100 μM of inhibitors to the enzyme mixture 5-10 min. prior to initiating the reaction with the addition of substrate.

[2] = test system: PP1; test: as above; type: biochemical; details: 100 μM inhibitor; none = 100
Method: as §1, §2

[3] = test system: PP3; test: as above; type: biochemical; details: 100 μM inhibitor; none = 100
Method: as §1, §2

[4] = test system: MDA-MB-231 cells; test: Cell cycle distribution by flow cytometry (propidium iodide); type: cell-based, human; details: for cell cycle distribution: 88 μM, MDA-MB-231
From the text: FIGS. 10A-D depict cell cycle distribution of human breast cancer cells after treatment with compound 1f determined by flow cytometry. […] Fluorescence channel measures intracellular propidium iodide concentration, an index of DNA content. Horizontal bars are the gating positions that allow for cell cycle analysis. […] Open bars are control cells and black bars are cells treated with compound 1f. […] The mean values were obtained from three independent determinations. Open bars are control cells and black bars are cells treated with 88 μM compound 1f.
MDA-MB-231 cells (6.5×10^5 /cm^2) were plated and incubated at 37° C. for 48 h. The plating medium was then aspirated off, and medium containing a concentration of compound 1f that caused approximately 50% growth inhibition (88-100 μM) was added for 48 to 72 h. Untreated cells at a similar cell density were used as control populations. Single cell preparations were fixed in ice-cold 1% paraformaldehyde, centrifuged at 1,000×g for 5 min, resuspended in Puck's saline, centrifuged, and resuspended in ice-cold 70% ethanol overnight. The cells were removed from fixatives by centrifugation (1,000×g for 5 min) and stained with a 5 μg/mL propidium iodide and 50 μg/mL RNase A solution. Flow cytometry analyses were conducted with a Becton Dickinson FACS Star. Single parameter DNA histograms were collected for 10,000 cells, and cell cycle kinetic parameters calculated using DNA cell cycle analysis software version C (Becton Dickinson). Experiments at 72 h were performed at least 3 independent times.

[5] = test system: Recombinant human CDC25B; test: CDC25B phosphatase assay, GST fusion protein, fluorescein diphosphate; type: biochemical; details: none = 100; 1 hour preincubation; concentration not given (0.3-100 μM tested)
Method: The compounds of the present invention are also capable of inhibiting dual specificity phosphatases, for example CDC25A and CDC25B. Phosphatases CDC25A and CDC25B are disclosed in U.S. Pat. No. 5,441,880. Inhibition of dual specificity phosphatases is defined herein as inhibition of the activity of CDC25A and/or CDC25B at a concentration of 100 μM of the inhibitor compound. In a preferred embodiment, the activity of the phosphatase is inhibited by at least 10%. In more preferred embodiments, the activity of the phophatase is inhibited by at least 25%, or even more preferably, by at least 50%. The ability of the compounds of the present invention to inhibit the phosphatases can be determined by measuring the effect of the compounds on the ability of CDC25 or CDC25B to dephosphorylate a substrate. Appropriate methods are known to those of ordinary skill in the art, and include, for example, calorimetric assays. A suitable assay is described in U.S. Pat. No. 5,441,880, the disclosure of which is incorporated herein by reference. […] The assay may be performed as a rapid calorimetric microtitration plate assay.
Compounds 1a-1r were assessed for ability to inhibit CDC25A and CDC25B activity. Recombinant human CDC25A and CDC25B were obtained as a glutahione-S-transferase (GST) fusion protein using human cDNA and standard molecular biological methods. The cDNA constructs are in a plasmid that is expressed in E. coli under the control of isopropyl-beta-D-[…] (IPTG). The bacterial pellet was disrupted by sonication, and centrifuged at 10,000×g. Using glutathione-agarose beads, the fusion protein was purified from postmicrosomal supernant fraction as described by Baratte et al. (1992) Anticancer Res. 12: 873-880. Phosphatase activity was assayed with a spectrofluorimeter under the following conditions: 1 unit (1 U=amount of protein that induces 33 fluoresence units/minute of product) of fusion protein in a final incubation mixture (150 μL) comprised of 25 mM Tris (pH=8.0), 5 mM EDTA, 33 μg/ml BSA, and 20 μM fluorescein diphosphate in 96-well microtiter plates. Plates were preincubated for 1 hour with 0 (control), 0.3, 1, 3, 10, 30, 100 μM compounds at room temperature. After the 1 hour incubation at room temperature, fluorescence of the fluorescein product (Ex. 485 nm; Em. 530 nm) were measured with a Biosystems Cytofluor II (Framingham, Mass.).

Sequence of PP2A (P67774 whole entry): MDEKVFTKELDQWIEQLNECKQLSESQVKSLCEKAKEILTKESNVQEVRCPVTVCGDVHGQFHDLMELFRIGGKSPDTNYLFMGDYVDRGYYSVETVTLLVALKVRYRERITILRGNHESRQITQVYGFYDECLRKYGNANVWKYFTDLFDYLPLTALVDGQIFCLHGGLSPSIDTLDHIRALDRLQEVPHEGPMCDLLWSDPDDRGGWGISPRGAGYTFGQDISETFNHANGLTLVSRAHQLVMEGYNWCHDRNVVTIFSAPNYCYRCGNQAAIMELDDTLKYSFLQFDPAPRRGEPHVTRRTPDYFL

In the case of `CCCCCCCCCC(=O)NC(CCC(=O)N(CCNC(=O)c1nc(-c2ccccc2)oc1-c1ccccc1)Cc1ccccc1)C(=O)O` (stereo not shown) [Compound 1f], the PP2A remaining activity, % of control at 100 µM [1] is reported as 156%, the “PP1 remaining activity, percent of control” value [2] is reported as 117% and the “PP3 remaining activity, percent of control” value [3] is reported as 85%. For the same compound, the cell cycle distribution ([4]; 48 h) was “prominent accumulation in the Gi phase with a concomitant decrease in both S and G2/M phases”, the cell cycle distribution ([4]; 72 h) was “prominent accumulation in the G1 phase” and the “site of blockage in cell cycle progression” value ([4]; MDA-MB-231, conclusion) was “blockage in cell cycle progression is at the G1 checkpoint”. For the same compound, the “CDC25B activity remaining, percent of control” value [5] was 15%.

Source: patent publication US5856506A, “Phosphatase inhibitors and methods of use thereof” (University of Pittsburgh, priority 1997, dated 1999)
